System: corticospinal neurons (CSNs/CSMNs)
Assay: Laser-capture microdissection and Illumina microarray gene expression in corticospinal neurons contralateral to stroke
Type: in vivo, rat
Description: In a separate group of animals (n=20), layer V pyramidal cells of the sensorimotor cortex were retrogradely labeled by injecting Alexa-Fluor-488-conjugated cholera toxin B subunit (CTB; 300 U/μl in sterile saline) into the cervical spinal cord. For this, animals were anesthetized with a combination of ketamine and Domitor (medetomidine) and a laminectomy was performed at the cervical level of the spinal cord (C2-C4). CTB was stereotaxically delivered into four sites lateral to the corticospinal tract. Injections (1.3 μl) were spaced 1 mm apart on the rostro-caudal axis, and were made 0.5 mm to the left and right of the midline. After allowing two weeks for transport of the tracer, we performed either sham surgery with no treatment (n=6) or stroke surgery combined with saline (n=3) or inosine (n=4) treatment as described above. Seven days later, animals were decapitated under transient gas anesthesia, brains were removed and rinsed in cold RPMI medium, and a tissue block containing the sensorimotor cortex was dissected and placed in OCT Tissue Tek Medium (Sakura Finetek USA Inc., CA) on dry ice within five minutes of death. Ten μm sections were cut onto precleaned Gold Seal RITE-ON glass slides (Gold Seal Prod-ucts, Portsmouth, N.H.), placed on dry ice, and rapidly stored at −80° C.
Slide-mounted sections were thawed and dehydrated in RNAse-free ethanol gradients and xylene. Retro-gradely labeled, fluorescent cortical pyramidal cells in the undamaged hemisphere were individually captured using the Arcturus VERITAS system. ≧500 cells were collected from each animal and stored in Arcturus extraction buffer at −80° C. Total RNA was extracted from cells using the Micro-to-Midi TotalRNA Purification System (Invitrogen, Carlsbad Calif.) and double-amplified using the TargetAmp 2-Round Aminoallyl-aRNA Amplification kit 1.0 (Epicentre, Madison, Wis.). Amplified RNA was checked for average fragment length using the Agilent RNA 6000 Nano LabChip kit (Agilent Technologies, Santa Clara, Calif.) and then biotinylated and hybridized (1 μg) on Illumina RatRef-12 Expression BeadChip arrays (Illumina, San Diego Calif.), querying the expression of >22,000 RefSeq-curated rat transcripts. Results were obtained from a total of 15 samples representing 6 untreated controls, 4 animals with stroke treated with saline and 5 animals with stroke treated with inosine. Slides were processed and scanned with Illumina BeadStation platform according to the manufacturer protocol.
Raw data was analyzed using Bioconductor packages (www.bioconductor.org, (Gentleman et al., 2004)). Low level quality-control analysis was performed using inter-array Pearson correlation and clustering based on variance. Two arrays (1 saline and 1 inosine-treated) were outliers and were excluded from the analysis. Data was normalized using quantile normalization, and analysis of differential expression was performed using a linear model fitting (LIMMA package, (Smyth, 2005). Differentially expressed genes were classified according to gene ontology using Bioconductor packages and online tools (DAVID, http://david.abcc.ncifcrf.gov/). Pathway analysis was carried out using Ingenuity Pathway Analysis (Ingenuity Systems, www.ingenuity.com).

SMILES: OC[C@H]1O[C@@H](n2cnc3c(O)ncnc32)[C@H](O)[C@@H]1O [inosine]
- Signal Intensity, MGC94053 (ILMN_53763, inosine after stroke): 469
- Fold-Induction Stroke, ino vs. cntrl, Cnot7 (ILMN_53955): 0.60
- Signal Intensity, Cnot7 (ILMN_53955, inosine after stroke): 427
- Fold-Induction Stroke, ino vs. cntrl, Rnf11 (ILMN_54109): 0.49
- Signal Intensity, Rnf11 (ILMN_54109, inosine after stroke): 825
- Fold-Induction Stroke, ino vs. cntrl, Scara3 (ILMN_54123): 0.78
- Signal Intensity, Scara3 (ILMN_54123, inosine after stroke): 470
- Fold-Induction Stroke, ino vs. cntrl, Gabarapl2 (ILMN_54140): 0.75
- Signal Intensity, Gabarapl2 (ILMN_54140, inosine after stroke): 1324
- Fold-induction CSMNs: Vim (ILMN_54242, over and above inosine's effect of decreasing stroke-induced changes): 1.96 fold
- Fold-Induction Stroke, ino vs. cntrl, LOC501145 (ILMN_54288): 0.70
- Signal Intensity, LOC501145 (ILMN_54288, inosine after stroke): 626
- Fold-Induction Stroke, ino vs. cntrl, Echdc1 (ILMN_54458): 0.67
- Signal Intensity, Echdc1 (ILMN_54458, inosine after stroke): 531
- Fold-Induction Stroke, ino vs. cntrl, LOC498407 (ILMN_54747): 0.64
- Signal Intensity, LOC498407 (ILMN_54747, inosine after stroke): 1261
- Fold-Induction Stroke, ino vs. cntrl, Fuca2 (ILMN_55057): 0.56
- Signal Intensity, Fuca2 (ILMN_55057, inosine after stroke): 662
- Fold-Induction Stroke, ino vs. cntrl, Grm3 (ILMN_55270): 0.50
- Signal Intensity, Grm3 (ILMN_55270, inosine after stroke): 387
- Fold-induction CSMNs: Rnaset2 (ILMN_55431, over and above inosine's effect of decreasing stroke-induced changes): 1.88 fold
- Fold-Induction, complement cascade gene C1qg (ILMN_55502, LCM-captured CSMNs contralateral a stroke): 3.96 fold
- Fold-induction CSMNs: C1qg (ILMN_55502, over and above inosine's effect of decreasing stroke-induced changes): 2.73 fold
- Fold-Induction Stroke, ino vs. cntrl, Map2k4 (ILMN_55667): 0.65
- Signal Intensity, Map2k4 (ILMN_55667, inosine after stroke): 9089
- Fold-Induction Stroke, ino vs. cntrl, LOC498618 (ILMN_55685): 0.49
- Signal Intensity, LOC498618 (ILMN_55685, inosine after stroke): 3089
- Fold-Induction, complement cascade gene C1s (ILMN_55706, LCM-captured CSMNs contralateral a stroke): 2.07 fold
- Fold-induction CSMNs: C1s (ILMN_55706, over and above inosine's effect of decreasing stroke-induced changes): 2.03 fold
- Fold-induction CSMNs: Bzrp (ILMN_55731, over and above inosine's effect of decreasing stroke-induced changes): 2.38 fold
- Fold-Induction Stroke, ino vs. cntrl, Klhl2 (ILMN_55879): 0.78
- Signal Intensity, Klhl2 (ILMN_55879, inosine after stroke): 516
- Fold-Induction Stroke, ino vs. cntrl, Tceal1 (ILMN_55905): 0.57
- Signal Intensity, Tceal1 (ILMN_55905, inosine after stroke): 286
- Fold-Induction Stroke, ino vs. cntrl, LOC502317 (ILMN_55909): 0.40
- Signal Intensity, LOC502317 (ILMN_55909, inosine after stroke): 689
- Fold-Induction Stroke, ino vs. cntrl, Nr2f1 (ILMN_55914): 0.52
- Signal Intensity, Nr2f1 (ILMN_55914, inosine after stroke): 526
- Fold-Induction Stroke, ino vs. cntrl, Slc16a1 (ILMN_55995): 0.56
- Signal Intensity, Slc16a1 (ILMN_55995, inosine after stroke): 827
- Fold-Induction Stroke, ino vs. cntrl, Tpt1 (ILMN_56078): 0.89
- Signal Intensity, Tpt1 (ILMN_56078, inosine after stroke): 11229
- Fold-Induction Stroke, ino vs. cntrl, Acsl3 (ILMN_56170): 0.50
- Signal Intensity, Acsl3 (ILMN_56170, inosine after stroke): 389
- Fold-Induction Stroke, ino vs. cntrl, Scn1a (ILMN_56183): 0.88
- Signal Intensity, Scn1a (ILMN_56183, inosine after stroke): 517
- Fold-Induction Stroke, ino vs. cntrl, Cetn3 (ILMN_56556): 0.63
- Signal Intensity, Cetn3 (ILMN_56556, inosine after stroke): 649
- Fold-Induction Stroke, ino vs. cntrl, Zfp68 (ILMN_56593): 0.59
- Signal Intensity, Zfp68 (ILMN_56593, inosine after stroke): 727
- Fold-Induction Stroke, ino vs. cntrl, Pnrc1 (ILMN_56710): 0.65
- Signal Intensity, Pnrc1 (ILMN_56710, inosine after stroke): 626
- Fold-Induction Stroke, ino vs. cntrl, RGD1308082 (ILMN_56896): 0.62
- Signal Intensity, RGD1308082 (ILMN_56896, inosine after stroke): 428
- Fold-Induction Stroke, ino vs. cntrl, Scg3 (ILMN_56986): 0.69
- Signal Intensity, Scg3 (ILMN_56986, inosine after stroke): 870
- Fold-Induction Stroke, ino vs. cntrl, Plp (ILMN_57073): 0.51
- Signal Intensity, Plp (ILMN_57073, inosine after stroke): 1222
- Fold-induction CSMNs: Serpinb1a (ILMN_57422, over and above inosine's effect of decreasing stroke-induced changes): 2.41 fold
- Fold-Induction Stroke, ino vs. cntrl, Lisch7 (ILMN_57520): 0.69
- Signal Intensity, Lisch7 (ILMN_57520, inosine after stroke): 484
- Fold-Induction Stroke, ino vs. cntrl, Olfm3 (ILMN_57553): 0.62
- Signal Intensity, Olfm3 (ILMN_57553, inosine after stroke): 473
- Fold-Induction Stroke, ino vs. cntrl, Vmp1 (ILMN_57554): 0.57
- Signal Intensity, Vmp1 (ILMN_57554, inosine after stroke): 1305
- Fold-Induction Stroke, ino vs. cntrl, Sc4mol (ILMN_57630): 0.52
- Signal Intensity, Sc4mol (ILMN_57630, inosine after stroke): 271
- Fold-Induction Stroke, ino vs. cntrl, RGD1308373 (ILMN_57697): 0.66
- Signal Intensity, RGD1308373 (ILMN_57697, inosine after stroke): 2921
- Fold-Induction Stroke, ino vs. cntrl, Gucy1b3 (ILMN_57719): 0.57
- Signal Intensity, Gucy1b3 (ILMN_57719, inosine after stroke): 3956
- Fold-Induction Stroke, ino vs. cntrl, Tnnc2 (ILMN_57928): 0.48
- Signal Intensity, Tnnc2 (ILMN_57928, inosine after stroke): 650

From patent US8912144B2, “Method for treating stroke via administration of NEP1-40 and inosine” (Children's Medical Center Corporation, priority 2003, dated 2014)
